Reference: PubChem BioAssay (NCI)
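The compound was tested at five concentrations on cells cultured in 96-well plates, with a 48-hour exposure period. Here, GI50 denotes the concentration required for 50% inhibition of growth. TGI denotes the concentration required for complete inhibition of growth.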

Tests used:
Test in all cases: inhibition of tumour cell growth, NCI panel, 48 h
MDA-MB-231 breast = tested on: MDA-MB-231 breast
NCI-H23 lung = tested on: NCI-H23 lung
SW-620 colon = tested on: SW-620 colon
HL-60(TB) leukemia = tested on: HL-60(TB) leukemia
SN12C renal = tested on: SN12C renal
CAKI-1 renal = tested on: CAKI-1 renal
OVCAR-5 ovarian = tested on: OVCAR-5 ovarian
A498 renal = tested on: A498 renal

SMILES | GI50 (MDA-MB-231 breast) [µM] | TGI (MDA-MB-231 breast) [µM] | GI50 (NCI-H23 lung) [µM] | TGI (NCI-H23 lung) [µM] | GI50 (SW-620 colon) [µM] | TGI (SW-620 colon) [µM] | GI50 (HL-60(TB) leukemia) [µM] | TGI (HL-60(TB) leukemia) [µM] | GI50 (SN12C renal) [µM] | TGI (SN12C renal) [µM] | GI50 (CAKI-1 renal) [µM] | TGI (CAKI-1 renal) [µM] | GI50 (OVCAR-5 ovarian) [µM] | TGI (OVCAR-5 ovarian) [µM] | GI50 (A498 renal) [µM] | TGI (A498 renal) [µM]
Fc1cccc(Cl)c1Cn1c(-c2c(F)cccc2Cl)nc2ccccc21 | 13.2 | 29.3 | 31.2 | > 100 | 16.8 | 38 | 3.86 | 74.6 | 15.7 | 30.8 | 24 | 47.5 | 24.9 | 95.8 | 19.2 | 36.6
O=C(NO)c1ccc(Cn2c(=O)n(-c3ccccc3)c(=O)c3ccccc32)cc1 | 1.63 | 5.16 | – | – | 0.667 | 3.03 | 2.66 | > 100 | – | – | 2.81 | 12.3 | 1.08 | 5.28 | 0.418 | 2.09
CN(C)CC1CCCCCC(Br)C1=O (stereo unspecified) | – | 30.9 | – | 29.6 | – | 12.7 | – | 30.1 | – | 32.2 | – | 16 | – | > 52.2 | – | > 100
CCCCCCCCCCCC1=NC(C)(C)CN1CC(C)O (stereo unspecified) | 3.82 | 13.7 | 4.36 | 16 | 1.85 | 3.91 | 2.44 | 5.68 | 7.26 | 20.3 | 2.97 | 12.2 | 12.3 | 24.8 | 10 | 22.8
CC(C)C[CH2][Ge]([CH2]CC(C)C)([CH2]CC(C)C)[CH2]CC(C)C | > 100 | > 100 | > 100 | > 100 | > 100 | > 100 | > 100 | > 100 | > 100 | > 100 | > 100 | > 100 | > 100 | > 100 | > 100 | > 100
O=C(Nc1ccc(Nc2ccncc2)cc1)c1ccc(Nc2ccnc3ccc([N+](=O)[O-])cc23)cc1[N+](=O)[O-] | 24.6 | > 61.8 | 20.6 | > 100 | 26.8 | > 55.5 | 25 | > 58.7 | 20.4 | > 55.5 | > 39.6 | > 83.2 | 38 | > 88.4 | 24.2 | > 62.2
O=C(O)c1cn(C2CC2)c2cc(N3CCNCC3)c(F)cc2c1=O | > 100 | > 100 | > 100 | > 100 | > 100 | > 100 | – | – | > 100 | > 100 | > 100 | > 100 | > 100 | > 100 | – | –
O=C(Nc1ccc(Oc2ccc(NC(=O)Nc3ccc([N+](=O)[O-])cc3)cc2)cc1)Nc1ccc([N+](=O)[O-])cc1 | 1.65 | 7.2 | 1.23 | 30.8 | 2.51 | > 56.3 | 0.787 | 3.41 | 2.16 | > 84.7 | 2.34 | 7.55 | 3.59 | > 100 | 1.97 | 7.23
Nc1nc(-c2ccc(Cl)cc2)cc(-c2ccc(Cl)cc2)c1-c1nc2ccccc2o1 | 15.8 | 31.3 | 17.8 | 37.3 | 17.5 | 33.3 | 17.9 | 37.2 | 12.4 | 26.1 | 20 | 35.9 | 20.7 | 39.1 | 19.6 | 34.6
Cc1cn([C@H]2C[C@H](O)[C@@H](CO)O2)c(=O)nc1N | – | > 100 | – | > 100 | – | > 100 | – | > 100 | – | > 100 | – | > 100 | – | > 100 | – | > 100
COc1ccc2c(c1)C(=O)c1c-2c(N2CCN(C(=O)CNCCN(C)C)CC2)nc2ccccc12 | 1.79 | 3.61 | – | – | 1.27 | 2.53 | 2.4 | 6.31 | 2.54 | 7.56 | 3.86 | 17.6 | 2.2 | 5.82 | 2.14 | 5
O=C1CCSC(=S)N1c1ccc(Br)c(Cl)c1 | – | 70 | – | > 100 | – | 91.6 | – | 75.9 | – | > 100 | – | 77.4 | – | > 100 | – | 48.4
COc1ccc(-c2nnc(SCC(=O)Nc3ccc(C(=O)/C=C/c4cc(OC)c(OC)c(OC)c4)cc3)n2-c2ccccc2)cc1OC | 4.84 | > 10 | 8.27 | > 10 | 2.45 | > 10 | 6.44 | > 10 | > 10 | > 10 | 8.57 | > 10 | > 10 | > 10 | 5 | > 10
CN(C)c1ccc(Nc2c3ccccc3nc3cc(NC(=O)CCN4CCCC4)ccc23)cc1 | 1.23 | 2.92 | 0.29 | 1.35 | 0.252 | 1.68 | 0.19 | 0.763 | 0.197 | 1.25 | 0.594 | 2.19 | 0.89 | 2.74 | 0.442 | 1.98
CCOC(=O)c1ccc(N(C=O)CCC(=O)CCl)cc1 | 0.275 | 1.16 | 0.483 | 7.81 | 0.0398 | 1.53 | 0.0438 | 0.351 | 0.217 | 4.27 | 0.528 | 2.05 | 0.474 | 9.23 | 1.47 | 5.87
O=C(c1nn(-c2ccc(Cl)cc2)cc1O)n1nc(C(F)(F)F)cc1-c1ccccc1 | > 26.3 | > 100 | 5.49 | > 100 | 4.51 | > 100 | 2.42 | > 100 | 3.57 | > 100 | 1.89 | > 36.8 | – | > 85 | 5.93 | > 73.9
